Experimental findings from patent US9382222B2, “Benzyl sulfonamide derivatives as RORc modulators” (Genentech, Inc., priority 2012, dated 2016) are described below.

The target of the test is T1, RORc ligand binding domain (Homo sapiens, UniProt P51449).
T1 construct: host or cells: E. coli
T1 sequence (P51449 269-508 limits assumed): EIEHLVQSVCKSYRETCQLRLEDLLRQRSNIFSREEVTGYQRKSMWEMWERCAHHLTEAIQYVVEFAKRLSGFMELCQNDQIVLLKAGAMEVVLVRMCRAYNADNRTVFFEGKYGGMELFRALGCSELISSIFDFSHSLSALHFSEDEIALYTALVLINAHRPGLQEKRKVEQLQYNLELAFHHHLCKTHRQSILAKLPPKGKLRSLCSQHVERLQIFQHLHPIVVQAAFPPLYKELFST
In words: In Vitro RORc Ligand Binding Assay. As to conditions: displacement of 25-[3H]hydroxycholesterol (6 nM), 0.6 ug/mL RORc receptor, 3 h at 25° C. How it is done:
In Vitro RORc Ligand Binding Assay This assay was used to determine a compound's potency in inhibiting activity of RORc by determining, Kiapp, IC50, or percent inhibition values. […] On day of the assay, 100 uL of 0.05% CHAPS (in deionized H2O) was added to all wells of the GFB Unifilter plate and allowed soak for 1 h. A wash buffer of 50 mM HEPES (pH 7.4), 150 mM NaCl, and 5 mM MgCl2 was prepared to wash the filter plate. To prepare an assay buffer, BSA was added to the wash buffer to reach 0.01% and DTT was added to reach 1 mM. […] The 20× compound stocks were diluted in DMSO with Assay Buffer 4-fold to reach 5× the final test concentration in 25% DMSO (10 uL compound+30 uL Assay Buffer). Solutions were mixed by aspiration several times with a pipette set on 50 uL volume. For the assay, 10 uL of 5× compound stock solutions in 25% DMSO were added to the assay plate in duplicate. For two point screening, 10 mM stock compound solutions were diluted in DMSO to obtain 200 uM (20× the high test concentration) and then diluted 10-fold further to reach 20 uM (20× the low test concentration). The 20× stocks were diluted 4-fold with Assay Buffer (10 uL compound+30 uL Assay Buffer) to reach 5× the test concentrations (50 uM and 5 uM) and 10 uL were added to two assay plates for the duplicate wells. […] Add 20 uL to all wells to reach 6 nM final concentration in the assay. […] Stock receptor solution was diluted in assay buffer to obtain 1.5 ug/mL in Assay Buffer. 20 uL was added to all wells. For No Receptor samples, 20 uL Assay Buffer was substituted for receptor solution. […] Following addition to the wells, the plates were incubated 3 h at 25° C. Using a Packard Filtermate Harvester, the filter plate were washed 4 times following transfer of the incubated samples. Plates were dry-filtered completely (2 h at 50° C. or overnight at room temperature). 50 uL Microscint 0 was added to all wells and read on Topcount protocol Inverted. […] For NSB wells, 1 uM 25-hydroxycholesterol was also present.
Regarding `CC(C)CN(c1cccc(Cl)c1)S(=O)(=O)c1ccc(N2CCN(S(C)(=O)=O)CC2)cc1` [Compound 18, N-(3-Chloro-phenyl)-N-isobutyl-4-(4-methanesulfonyl-piperazin-1-yl)-benzenesulfonamide], the IC50 (in general, the concentration at which inhibition is half-maximal) was found to be 0.126 µM. Consider `CC(=O)N1CCN(c2ccc(S(=O)(=O)N(Cc3ccccc3C(F)(F)F)C3(C)CCC3)cc2)CC1` [Compound 86, 4-(4-Acetyl-piperazin-1-yl)-N-(1-methyl-cyclobutyl)-N-(2-trifluoromethyl-benzyl)-benzenesulfonamide], for which the IC50 was determined as 0.07 µM. Take `CC(C)CN(c1ccc(F)cc1)S(=O)(=O)c1ccc(OC2CCN(S(C)(=O)=O)CC2)cc1` [Compound 3, N-(4-Fluoro-phenyl)-N-isobutyl-4-(1-methanesulfonyl-piperidin-4-yloxy)-benzenesulfonamide]: the IC50 came to 0.016 µM. The value for `CC(C)CN(c1cccc(Cl)c1)S(=O)(=O)c1ccc(N2CCC(NS(C)(=O)=O)CC2)cc1` [Compound 23, N-(3-Chloro-phenyl)-N-isobutyl-4-(4-methanesulfonylamino-piperidin-1-yl)-benzenesulfonamide] was 0.169 µM. Compound `CC(C)CN([C@@H](C)c1ccccc1)S(=O)(=O)c1ccc(N2CCN(S(C)(=O)=O)CC2)cc1` [Compound 63, N-Isobutyl-4-(4-methanesulfonyl-piperazin-1-yl)-N-((S)-1-phenyl-ethyl)-benzenesulfonamide] registered an IC50 of 0.039 µM. In the case of `CC(C)CN(c1ccccc1Cl)S(=O)(=O)c1ccc(N2CCC(NS(C)(=O)=O)CC2)cc1` [Compound 24, N-(2-Chloro-phenyl)-N-isobutyl-4-(4-methanesulfonylamino-piperidin-1-yl)-benzenesulfonamide] it was 0.128 µM; in that of `CC(C)CN(c1cccc(Cl)c1)S(=O)(=O)c1cccc(NC2CCN(S(C)(=O)=O)CC2)c1` [Compound 40, N-(3-Chloro-phenyl)-N-isobutyl-3-(1-methanesulfonyl-piperidin-4-ylamino)-benzenesulfonamide], 0.48 µM; in that of `CC(C)CN(Cc1ccc(OC(F)F)cc1)S(=O)(=O)c1ccc(N2CCN(S(C)(=O)=O)CC2)cc1` [Compound 72, N-(4-Difluoromethoxy-benzyl)-N-isobutyl-4-(4-methanesulfonyl-piperazin-1-yl)-benzenesulfonamide], 0.083 µM. In the case of `CC(C)CN(c1cccc(Cl)c1)S(=O)(=O)c1ccc(N[C@H]2CCCN(S(C)(=O)=O)C2)cc1` [Compound 45, N-(3-Chloro-phenyl)-N-isobutyl-4-((S)-1-methanesulfonyl-piperidin-3-ylamino)-benzenesulfonamide] it was 0.271 µM; in that of `CC(=O)N1CCN(c2ccc(S(=O)(=O)N(CC(C)C)c3ccccc3Cl)cc2)CC1` [Compound 21, 4-(4-Acetyl-piperazin-1-yl)-N-(2-chloro-phenyl)-N-isobutyl-benzenesulfonamide], 0.099 µM. As for `CC(=O)N1CCN(c2ccc(S(=O)(=O)N(CC(C)C)c3cccc(Cl)c3)cc2)CC1` [Compound 17, 4-(4-Acetyl-piperazin-1-yl)-N-(3-chloro-phenyl)-N-isobutyl-benzenesulfonamide], the IC50 came out at 0.138 µM.

In the case of `CC(C)CN(c1cccc(Cl)c1)S(=O)(=O)c1ccc(OC2CCN(C(N)=O)CC2)cc1` [Compound 35, 4-{4-[(3-Chloro-phenyl)-isobutyl-sulfamoyl]-phenoxy}-piperidine-1-carboxylic acid amide], the IC50 is 0.108 µM.
